From PMC8241751, “Influence of the Dabcyl group on the cellular uptake of cationic peptides: short oligoarginines as efficient cell-penetrating peptides” (Amino Acids, 2021) come the findings set out here.

Some results are limits rather than exact numbers.

Holding throughout (format): cell-based, human
One data set has as its system HL-60 cells. Kind of data set: In vitro cytostatic activity (MTT) on HL-60. The procedure:
The cells (HL-60 or MCF-7) were grown to confluency and were plated into 96-well plate with initial cell number of 5 × 10^3 per well. After 24 h incubation at 37 °C, cells were treated with the compounds at 1.28 × 10^–3–100 μM concentration range for 3 h in 200 μL final volume. Control cells were treated with serum free medium at 37 °C for 3 h. After incubation the cells were washed twice with serum free medium. For the analysis of the in vitro cytostatic effect, cells were cultured for an additional 72 h in serum containing medium. On day 4, MTT assay was carried out to determine the IC50 values of the compounds. Briefly, 45 μL of MTT solution was added to each well (2 mg/mL, dissolved in serum-free medium). Following the 4 h incubation, plates were centrifuged at 900 g for 5 min, and the supernatant was removed. The precipitated purple crystals were dissolved in 100 μL DMSO and the absorbance was determined at λ = 540 nm and λ = 620 nm using ELISA plate reader (iEMSReader, Labsystems, Finland). The percent of cytostasis was calculated using the following equation: Cytostatic effect (%) = [1 − (ODtreated/ODcontrol)] × 100; where ODtreated and ODcontrol correspond to the optical densities of the treated and the untreated control cells, respectively. In each case three independent experiments were carried out with four parallel measurements. […] The curves were defined using MicrocalTM Origin (version 9.2) software: cytostasis was plotted as a function of concentration, fitted to a sigmoidal curve, and based on this curve, the IC50 value was determined.

The test system of data set [1] is HeLa cells. The experiment in a line: Confocal microscopy of internalisation into HeLa cells. The note with it: 37 °C. The procedure:
HeLa cells (2.0 × 10^5 cells) seeded in 35-mm glass-bottomed dishes (Iwaki) were cultured at a 37 °C incubator for 24 h. The cells were then incubated with peptide in α-MEM( +) and α-MEM(–) for 30 min at 37 °C or 4 °C. After washing with PBS( +) containing 0.5% (w/v) heparin, intracellular distribution of the fluorescently-labelled peptides was analysed without fixing using a confocal microscope (FV1000, Olympus). For time-lapse imaging, the cells were placed at 37 °C in a microchamber (MI-IBC-IF, Olympus) attached on the stage of the inverted microscope. The cells were then treated with 5 µM of Dabcyl–Arg6–Lys(Rh)–NH2 or Dabcyl–Arg4–Lys(Cf)–NH2 in α-MEM( +) or α-MEM(–). Time 0 represents the image immediately after the addition of conjugates.

The test system of data set [2] is HeLa cells. Kind of data set: Cellular uptake by flow cytometry on HeLa cells. As to conditions: 30 min; for Cellular uptake in the presence of serum: α-MEM(+), lowest studied concentration (2.5 μM). The procedure:
HeLa cells (8.0 × 10^4/well) in α-MEM( +) were cultured in 24-well microplates overnight at 37 °C. Cells were treated with fluorescently-labelled peptides (2.5, 5 and 10 μM) in α-MEM( +) and α-MEM without 10% BS [α-MEM(–)], respectively, for 30 min at 37 °C. After being washed with phosphate-buffered saline (PBS), cells were incubated with 0.01% trypsin in PBS for 10 min at 37 °C. The collected cells were then centrifuged at 800 g for 5 min at 4 °C, washed twice with PBS, and subjected to flow cytometry analysis (Attune NxT Flow Cytometer, ThermoFisher). Each sample was analysed over 10,000 events.
A general note: Flow cytometry measures light scatter and fluorescence of single cells or particles in a stream.

In general, IC50 refers to the midpoint of a concentration-inhibition curve. As to `CN(C)c1ccc(/N=N/c2ccc(C(=O)N[C@@H](CCCNC(=N)N)C(=O)N[C@@H](CCCNC(=N)N)C(=O)N[C@@H](CCCNC(=N)N)C(=O)N[C@@H](CCCNC(=N)N)C(=O)N[C@@H](CCCNC(=N)N)C(=O)N[C@@H](CCCNC(=N)N)C(=O)N[C@@H](CCCCN)C(N)=O)cc2)cc1` [Dabcyl–Arg6–Lys–NH2], the IC50 in the data set on HL-60 cells (HL-60, 3 h incubation, then 3 days in serum-containing medium, MTT assay, ± sd, three independent experiments with four parallels) is greater than 100 µM. Further, the “Cytostatic effect on HL-60 cells” value with HL-60 cells (up to c = 100 μM) is “no cytostatic effect”.

As to `CN(C)c1ccc(C(=O)N[C@@H](CCCNC(=N)N)C(=O)N[C@@H](CCCNC(=N)N)C(=O)N[C@@H](CCCNC(=N)N)C(=O)N[C@@H](CCCNC(=N)N)C(=O)N[C@@H](CCCNC(=N)N)C(=O)N[C@@H](CCCNC(=N)N)C(=O)N[C@@H](CCCCNC(=O)c2ccc3c(c2)C(=O)OC32c3ccc(O)cc3Oc3cc(O)ccc32)C(N)=O)cc1` [Dmab–Arg6–Lys(Cf)–NH2], in the data set on HeLa cells [1] (1-20 μM, confocal microscopy), the “Effect on the cell viability (morphology, number of cells)” value is listed as “no effect on the cell viability”.

In the case of “Ac–RRRRRRK(Rh)–NH2 [Ac–Arg6–Lys(Rh)–NH2, acetylated hexaarginine with carboxytetramethylrhodamine on lysine]”, the “Cellular uptake in the presence of serum” value in the data set on HeLa cells [2] is given as “undetectable”. Also, the Intracellular distribution result with HeLa cells [1] (α-MEM(–), 5 and 10 μM, 30 min) is listed as “punctate distribution”.

As to “Dabcyl–RRRRRRK(Rh)–NH2 [Dabcyl–Arg6–Lys(Rh)–NH2, Dabcyl-modified hexaarginine with carboxytetramethylrhodamine on lysine]”, the “Internalisation in the absence of serum compared to serum (+)” value with HeLa cells [2] (2.5 µM, 37 °C) was “twice”. Further, the “Cellular uptake, times higher than hexaarginine's” value with HeLa cells [2] (absence of serum, 2.5 µM, 37 °C) is 3 times. For the same compound, in the data set on HeLa cells [2], the “Cellular uptake in the presence of serum” value is “markedly pronounced”. Moreover, the “Time needed to get well detectable signal with diffuse cytosolic distribution” value in the data set with HeLa cells [1] (5 μM, α-MEM(+), time-lapse imaging) came out at 25 min. Also, the “Threshold concentration above which distribution becomes diffuse” value in the data set with HeLa cells [1] (30 min, confocal microscopy) is “under 5 μM”. For the same compound, the Intracellular distribution entry in the data set on HeLa cells [1] (α-MEM(+) with serum, 10 µM, 30 min) is listed as “diffuse cytosolic localisation”; in the data set with HeLa cells [1] (α-MEM(–), 2.5 μM, 30 min) it was “diffuse distribution pattern”. For the same compound, in the data set on HeLa cells [1] (α-MEM(–), 5 and 10 μM, 30 min, cell number also decreased), the “Morphology of the cells” value is given as “dramatically changed”.
